{"source": "patent US20250295732A1", "about": "“COMPOSITIONS AND METHODS FOR ACTIVATING INNATE IMMUNITY” (Zoetis Services LLC, priority 2021, published 2025)", "key": {"[1]": {"system": "bovine monocyte-derived macrophages", "test": "Flow cytometric surface marker expression after LPS", "format": "cell-based", "conditions": "24 hr following LPS after CATH2 removal and 3-day rest; vs vehicle", "from_the_text": "(§1) Peripheral blood mononuclear cells (PBMC) were isolated from bovine blood using ficoll gradients. Bovine monocytes were isolated from PBMC using magnetic assisted cell sorting to positively select for CD14+ cells using anti-human CD14 microbeads (Miltenyi Biotec). Purified bovine blood CD14+ monocytes were differentiated into macrophages using an M2-skewing differentiation factor (recombinant bovine M-CSF) over 7 days then exposed to CATH2 or a vehicle control in the presence of bovine casein to mimic aspects of the mammary gland for 24 hr. […] Following the rest period, a subset of vehicle- and CATH2-trained monocyte-derived macrophages were assessed for epigenetic and transcriptomic changes. The remaining cells were challenged with LPS or E. coli bioparticle labeled with pH-sensitive pHrodo green dye and key parameters for macrophage activation/immune response were assessed including glycolytic activity, surface marker expression, gene expression, cytokine production, phagocytosis, reactive nitrogen species production, and miRNA profiling.\nExpression of surface markers on bovine monocyte-derived macrophages and cells isolated from bovine milk were assessed using flow cytometry. […] Following incubation with live/dead stain and antibodies, labeled cells were washed, and then analyzed on a ZE5 CellAnalyzer (BioRad) for monocyte-derived macrophages and a FACS Canto II (BD) for milk cells. […]"}, "[2]": {"system": "bovine monocyte-derived macrophages", "test": "mRNASeq transcriptome analysis", "format": "cell-based", "conditions": "for Number of significantly differentially expressed genes, P < 0.01 & |log2FC| > 1 / Number of significantly differentially expressed genes, P < 0.05 & |log2FC| > 1 / Number of significantly differentially expressed genes, Padj < 0.05 & |log2FC| > 0.585 / Number of significantly differentially expressed genes, Padj < 0.05 & |log2FC| > 1 / Number of significantly differentially expressed genes, Padj < 0.1 & |log2FC| > 1: CATH2_vs_vehicle", "from_the_text": "(§2) Peripheral blood mononuclear cells (PBMC) were isolated from bovine blood using ficoll gradients. Bovine monocytes were isolated from PBMC using magnetic assisted cell sorting to positively select for CD14+ cells using anti-human CD14 microbeads (Miltenyi Biotec). Purified bovine blood CD14+ monocytes were differentiated into macrophages using an M2-skewing differentiation factor (recombinant bovine M-CSF) over 7 days then exposed to CATH2 or a vehicle control in the presence of bovine casein to mimic aspects of the mammary gland for 24 hr. Following treatment, vehicle and drug were removed and cells were washed to eliminate residual drug and monocyte-derived macrophages were rested for 3 days in order to assess reprogramming. Following the rest period, a subset of vehicle- and CATH2-trained monocyte-derived macrophages were assessed for epigenetic and transcriptomic changes. The remaining cells were challenged with LPS or E. coli bioparticle labeled with pH-sensitive pHrodo green dye and key parameters for macrophage activation/immune response were assessed including glycolytic activity, surface marker expression, gene expression, cytokine production, phagocytosis, reactive nitrogen species production, and miRNA profiling.\nBovine monocyte-derived macrophages were lysed in Buffer RLT with addition of (3-mercaptoethanol (QIAGEN) and stored at −80° C. until miRNA/mRNA isolations could be performed. Total RNA including miRNA was isolated from cell lysates using the miRNeasy Tissues/Cells Advanced kit (QIAGEN) following the manufacturer's instructions. mRNA and miRNA libraries were prepared using the TruSeq Stranded mRNA Library Prep Kit (Illumina) and QIAseq miRNA Library Kit, respectively (QIAGEN) according to the manufacturer's instructions. Libraries were run on the Illumina NextSeq550 System. Sequencing data were analyzed using CLC Genomics Workbench software and QIAGEN Ingenuity Pathway Analysis (IPA)."}, "[3]": {"system": "bovine monocyte-derived macrophages", "test": "H3 histone modification quantification (ELISA)", "format": "cell-based", "conditions": "vs vehicle", "from_the_text": "as §1\nHistones were isolated from bovine monocyte-derived macrophages using commercially available histone extraction kits (Epigentek) according to the manufacturer's instructions and stored at −80° C. until histone quantification assays could be performed. […]"}, "[4]": {"system": "bovine monocyte-derived macrophages", "test": "ChIP-Seq for H3K27ac", "format": "cell-based", "conditions": "after CATH2 exposure and 3-day rest, pre-LPS; vs vehicle", "from_the_text": "as §2, with “profiling. […]” for “profiling.”"}, "[5]": {"system": "milk macrophages (CD14+CD172a+ milk cells)", "test": "In vivo intramammary treatment and E. coli mastitis challenge model", "parameters": "species or system lactating dairy cows", "description": "Healthy lactating dairy cows were treated according to table 1 on day −2 of study, at the AM milking, in the front quarters designated by the allotment, one quarter was treated with CATH2 and the neighboring quarter within the same cow was given vehicle control by intramammary infusion. Following administration of CATH2 and vehicle doses, quarters which received CATH2 or vehicle received an intramammary infusion of live Escherichia coli. The E. coli strain used causes clinical mastitis. Milk samples from CATH2-treated and vehicle control quarters were collected following E. coli challenge for cell isolation to assess macrophage surface marker expression.\nExpression of surface markers on bovine monocyte-derived macrophages and cells isolated from bovine milk were assessed using flow cytometry. In brief, for monocyte-derived macrophages, cells were lifted with Accutase, washed, and then incubated with fluorescently tagged antibodies against bovine surface markers of interest (CD163, CD14, CD80, MHC II) and a live/dead stain. In brief, for cells in bovine milk, milk was diluted in MACS Running Buffer, spun, fat layer and supernatant were discarded, and milk cell pellets were preserved in Streck. Preserved milk cells were washed again and then incubated with fluorescently tagged antibodies against bovine surface markers of interest (CD163, CD14, CD80, MHC II, CD172a) and a live/dead stain. Following incubation with live/dead stain and antibodies, labeled cells were washed, and then analyzed on a ZE5 CellAnalyzer (BioRad) for monocyte-derived macrophages and a FACS Canto II (BD) for milk cells. Flow cytometry data were analyzed using FlowJo analysis software (Becton Dickson) to assess relative levels of expression via mean fluorescent intensity for each marker of interest within the live CD14+ cell population (for monocyte-derived macrophages) or within the live CD14+CD172a+ cell population (for milk cells)."}, "[6]": {"system": "bovine monocyte-derived macrophages", "test": "LPS-induced lactate production (LactateGlo)", "format": "cell-based", "conditions": "CATH2 24 hr, removal, 3-day rest, LPS 24 hours; vs vehicle", "from_the_text": "as §2\nLactate levels in cell culture supernatant were quantified using LactateGlo® (Promega) according to manufacturer's instructions."}, "[7]": {"conditions": "0 hrs_post_CATH2 (prior to CATH2 treatment)"}, "[8]": {"conditions": "0 hrs_post_LPS (after CATH2 and 3-day rest)"}, "[9]": {"conditions": "intramammary CATH2 prior to E. coli challenge"}}, "data": [{"sequence": "RFGRFLRKIRRFRPKVTITIQGSARFG [CATH2, cathelicidin 2 peptide]", "values": [{"measurement": "Surface marker expression (CD14, CD80, MHC II, CD163)", "setting": "[1]", "value": "enhanced expression of multiple surface markers"}, {"measurement": "CD14 and CD80 gene expression (RNA sequence data)", "setting": "[2]; 8 hr following LPS stimulation, CATH2 vs vehicle", "value": "significantly upregulated"}, {"measurement": "Number of significantly differentially expressed genes, P < 0.01 & |log2FC| > 1", "setting": "[2]; [7]", "value": 0}, {"measurement": "Number of significantly differentially expressed genes, P < 0.05 & |log2FC| > 1", "setting": "[2]; [7]", "value": 0}, {"measurement": "Number of significantly differentially expressed genes, Padj < 0.05 & |log2FC| > 0.585", "setting": "[2]; [7]", "value": 0}, {"measurement": "Number of significantly differentially expressed genes, Padj < 0.05 & |log2FC| > 1", "setting": "[2]; [7]", "value": 0}, {"measurement": "Number of significantly differentially expressed genes, Padj < 0.1 & |log2FC| > 1", "setting": "[2]; [7]", "value": 0}, {"measurement": "Number of significantly differentially expressed genes, P < 0.01 & |log2FC| > 1", "setting": "[2]; [8]", "value": 169}, {"measurement": "Number of significantly differentially expressed genes, P < 0.05 & |log2FC| > 1", "setting": "[2]; [8]", "value": 244}, {"measurement": "Number of significantly differentially expressed genes, Padj < 0.05 & |log2FC| > 0.585", "setting": "[2]; [8]", "value": 171}, {"measurement": "Number of significantly differentially expressed genes, Padj < 0.05 & |log2FC| > 1", "setting": "[2]; [8]", "value": 96}, {"measurement": "Number of significantly differentially expressed genes, Padj < 0.1 & |log2FC| > 1", "setting": "[2]; [8]", "value": 134}, {"measurement": "Number of significantly differentially expressed genes, P < 0.01 & |log2FC| > 1", "setting": "[2]; 8 hrs_post_CATH2", "value": 6}, {"measurement": "Number of significantly differentially expressed genes, P < 0.05 & |log2FC| > 1", "setting": "[2]; 8 hrs_post_CATH2", "value": 27}, {"measurement": "Number of significantly differentially expressed genes, Padj < 0.05 & |log2FC| > 0.585", "setting": "[2]; 8 hrs_post_CATH2", "value": 0}, {"measurement": "Number of significantly differentially expressed genes, Padj < 0.05 & |log2FC| > 1", "setting": "[2]; 8 hrs_post_CATH2", "value": 0}, {"measurement": "Number of significantly differentially expressed genes, Padj < 0.1 & |log2FC| > 1", "setting": "[2]; 8 hrs_post_CATH2", "value": 0}, {"measurement": "Number of significantly differentially expressed genes, P < 0.01 & |log2FC| > 1", "setting": "[2]; 8 hrs_post_LPS", "value": 509}, {"measurement": "Number of significantly differentially expressed genes, P < 0.05 & |log2FC| > 1", "setting": "[2]; 8 hrs_post_LPS", "value": 593}, {"measurement": "Number of significantly differentially expressed genes, Padj < 0.05 & |log2FC| > 0.585", "setting": "[2]; 8 hrs_post_LPS", "value": 962}, {"measurement": "Number of significantly differentially expressed genes, Padj < 0.05 & |log2FC| > 1", "setting": "[2]; 8 hrs_post_LPS", "value": 479}, {"measurement": "Number of significantly differentially expressed genes, Padj < 0.1 & |log2FC| > 1", "setting": "[2]; 8 hrs_post_LPS", "value": 532}, {"measurement": "Number of significantly differentially expressed genes, P < 0.01 & |log2FC| > 1", "setting": "[2]; 24 hrs_post_CATH2", "value": 11}, {"measurement": "Number of significantly differentially expressed genes, P < 0.05 & |log2FC| > 1", "setting": "[2]; 24 hrs_post_CATH2", "value": 28}, {"measurement": "Number of significantly differentially expressed genes, Padj < 0.05 & |log2FC| > 0.585", "setting": "[2]; 24 hrs_post_CATH2", "value": 0}, {"measurement": "Number of significantly differentially expressed genes, Padj < 0.05 & |log2FC| > 1", "setting": "[2]; 24 hrs_post_CATH2", "value": 0}, {"measurement": "Number of significantly differentially expressed genes, Padj < 0.1 & |log2FC| > 1", "setting": "[2]; 24 hrs_post_CATH2", "value": 0}, {"measurement": "Number of significantly differentially expressed genes, P < 0.01 & |log2FC| > 1", "setting": "[2]; 24 hrs_post_LPS", "value": 328}, {"measurement": "Number of significantly differentially expressed genes, P < 0.05 & |log2FC| > 1", "setting": "[2]; 24 hrs_post_LPS", "value": 393}, {"measurement": "Number of significantly differentially expressed genes, Padj < 0.05 & |log2FC| > 0.585", "setting": "[2]; 24 hrs_post_LPS", "value": 520}, {"measurement": "Number of significantly differentially expressed genes, Padj < 0.05 & |log2FC| > 1", "setting": "[2]; 24 hrs_post_LPS", "value": 279}, {"measurement": "Number of significantly differentially expressed genes, Padj < 0.1 & |log2FC| > 1", "setting": "[2]; 24 hrs_post_LPS", "value": 330}, {"measurement": "DEG related to Rho family signaling", "setting": "[2]; CATH2 vs vehicle", "value": "downregulated"}, {"measurement": "Type I interferon induced genes (e.g. ISG15, MX2, OAS2)", "setting": "[2]; CATH2 vs vehicle", "value": "significantly upregulated"}, {"measurement": "Immune response gene expression (IL1A/B, IL6, IL8, IL12, IL23, CCL2, NOS2, IL10)", "setting": "[2]; pre- and post-LPS after CATH2 treatment and 3-day rest, vs vehicle", "value": "significantly upregulated"}, {"measurement": "H3 histone modifications (incl. H3K27ac, H3K4me1)", "setting": "[3]; after CATH2 exposure and rest period, pre-LPS", "value": "increased levels of various H3 histone modifications"}, {"measurement": "H3 histone modifications following LPS challenge", "setting": "[3]; after CATH2 exposure, rest, LPS 1 μg/mL 24 hr", "value": "some modifications are retained to a lesser extent"}, {"measurement": "ChIP-Seq peaks with H3K27ac mark", "setting": "[4]", "value": "increased number of peaks with H3K27ac mark"}, {"measurement": "Bacterial counts in milk", "setting": "[5]; [9]", "value": "reduced bacterial counts in milk"}, {"measurement": "Milk somatic cell counts", "setting": "[5]; [9]", "value": "lower milk somatic cell counts"}, {"measurement": "Milk macrophage surface marker expression (CD14, CD80, MHC II, CD163)", "setting": "[5]; intramammary CATH2 prior to challenge, 12 hr following live E. coli intramammary challenge, vs vehicle quarter", "value": "enhanced expression of the same surface markers"}, {"measurement": "LPS-induced lactate production in supernatant", "setting": "[6]", "value": "increased lactate production"}]}]}
